Measurements from patent US10034915B2, “Small heat shock proteins and active fragments thereof as a therapy for inflammation and ischemia” (The Board of Trustees of the Leland Stanford Junior …, priority 2011, dated 2018).
“Also recorded” adds a separate entry of the source.

B1: Hsp20 (protein, UniProt Q9UJY1 1-196, looked up)
Heat shock protein beta-8: MADGQMPFSCHYPSRLRRDPFRDSPLSSRLLDDGFGMDPFPDDLTASWPDWALPRLSSAWPGTLRSGMVPRGPTATARFGVPAEGRTPPPFPGEPWKVCVNVHSFKPEELMVKTKDGYVEVSGKHEEKQQEGGIVSKNFTKKIQLPAEVDPVTVFASLSPEGLLIIEAPQVPPYSTFGESSFNNELPQDSQEVTCT
notes: recombinant human small heat shock protein
B2: HSPB3: recombinant human small heat shock protein (protein, UniProt Q12988 1-150, looked up)
Heat shock protein beta-3: MAKIILRHLIEIPVRYQEEFEARGLEDCRLDHALYALPGPTIVDLRKTRAAQSPPVDSAAETPPREGKSHFQILLDVVQFLPEDIIIQTFEGWLLIKAQHGTRMDEHGFISRSFTRQYKLPDGVEIKDLSAVLCHDGILVVEVKDPVGTK
B3: Hsp22 (protein, UniProt O14558 1-160, looked up)
Heat shock protein beta-6: MEIPVPVQPSWLRRASAPLPGLSAPGRLFDQRFGEGLLEAELAALCPTTLAPYYLRAPSVALPVAQVPTDPGHFSVLLDVKHFSPEEIAVKVVGEHVEVHARHEERPDEHGFVAREFHRRYRLPPGVDPAAVTSALSPEGVLSIQAAPASAQAPPPAAAK
notes: as for B1
B4: HSPB9: recombinant human small heat shock protein (protein, UniProt Q9BQS6 1-159, looked up)
Heat shock protein beta-9: MQRVGNTFSNESRVASRCPSVGLAERNRVATMPVRLLRDSPAAQEDNDHARDGFQMKLDAHGFAPEELVVQVDGQWLMVTGQQQLDVRDPERVSYRMSQKVHRKMLPSNLSPTAMTCCLTPSGQLWVRGQCVALALPEAQTGPSPRLGSLGSKASNLTR
B5: Arg120Gly: naturally occurring mutated HSPB5, arginine to glycine at amino acid position 120 (protein, UniProt P02511 1-175, looked up, variant R120G)
Alpha-crystallin B chain: MDIAIHHPWIRRPFFPFHSPSRLFDQFFGEHLLESDLFPTSTSLSPFYLRPPSFLRAPSWFDTGLSEMRLEKDRFSVNLDVKHFSPEELKVKVLGDVIEVHGKHEERQDEHGFISREFHGKYRIPADVDPLTITSSLSSDGVLTVNGPRKQVSGPERTIPITREEKPAVTAAPKK
B6: myotonic dystrophy protein kinase binding protein, MKBP (protein, UniProt Q16082 1-182, looked up)
Heat shock protein beta-2: MSGRSVPHAHPATAEYEFANPSRLGEQRFGEGLLPEEILTPTLYHGYYVRPRAAPAGEGSRAGASELRLSEGKFQAFLDVSHFTPDEVTVRTVDNLLEVSARHPQRLDRHGFVSREFCRTYVLPADVDPWRVRAALSHDGILNLEAPRGGRHLDTEVNEVYISLLPAPPDPEEEEEAAIVEP
notes: as for B1

Key:
EAE mice = assay: EAE in 129Sv WT mice immunized with MOG35-55/CFA, clinical scoring; format: in vivo, mouse; details: for AREA UNDER THE CURVE (amount higher than HSPB5 normalized to PBS): average EAE scores, peptide every other day from peak of disease, 129Sv WT mice, n=5 per group; for therapeutic efficacy of peptide in EAE (clinical scores): peptide every other day from peak of disease (10 μg, or 1 μg equimolar to 10 μg protein); for EAE clinical scores over the course of the whole experiment (area under the curve): 10 μg sHSP protein IP every other day from peak of disease; for EAE clinical scores over the course of the whole experiment (area under the curve) / clinical paralysis / EAE clinical scores: vs PBS; for clinical paralysis / EAE clinical scores: 10 μg sHSP protein IP every other day starting at the peak of disease
Method: To investigate if the therapeutic efficacy of HSPB5 is a common feature of the whole family of small heat shock proteins, we expressed recombinant HSPB1, HSPB4, and HSPB5. We then treated EAE mice every other day starting at the peak of disease, when clinical paralysis is apparent, with an intraperitoneal (IP) administration of 10 μg of either HSPB1, HSPB4, HSPB5, or PBS as the vehicle control. […] Treating mice in vivo with HSPB1, HSPB4, or HSPB5 led to a reduction in the production of pro-inflammatory cytokines by MOG stimulated splenocytes taken from MOG immunized mice (FIG. 1c). Improvement of the clinical score was dependent on continued dosing of the sHSP. After dosing was stopped, symptoms returned, and paralysis worsened after 96 hours.
Therapeutic Peptides from HSPB5 in EAE. […] We made a series of overlapping, 15-mer peptide fragments of HSPB5 and treated mice at the peak of disease with 10 μg of each peptide every other day, using HSPB5 as a positive control and PBS as a negative control.
EAE induction and scoring. Mice were immunized subcutaneously with 100 μL of myelin oligodendrocyte glycoprotein (MOG) peptide 35-55 (2 mg/mL) and Complete Freund's adjuvant (CFA) (4 mg/mL) on Day 0. […] Mice were randomized at the peak of disease into the treatment groups where they received 10 ug/200 μL of sHSP, 1 μg/200 uL of sHSP peptide, or 200 μL of PBS (vehicle) every other day. Mice were scored every day on a clinical scoring system: 0, healthy mouse; 1, limp tail; 2, weak hindlimbs; 3, complete hindlimb paralysis; 4, weak forelimbs and paralyzed hindlimbs; 5, dead.

[1] = system: pro-inflammatory cytokines of MOG stimulated splenocytes; assay: Peripheral immune cell activation: cytokine production by MOG stimulated splenocytes of treated MOG immunized mice (ELISA); set-up: species or system mouse; details: mice treated in vivo; splenocytes from MOG immunized mice
Method: Peripheral immune cell activation and cytokine analysis. Spleens and lymph nodes were isolated from mice 9 days after immunization with MOG35-55 and CFA. Spleens were mechanically disrupted to isolate single cell splencytes suspension. Cells were cultured in flat bottomed, 96-well plates in media (RPMI 1640 supplemented with […] L-glutamine, 1 mM sodium pyruvate, 0.1 mM non-essential amino acids, 100 U/mL penicillin, 0.1 mg/mL streptomycin, 0.5 uM 2-mercaptoethanol, and 10% fetal calf serum). Cells were stimulated with MOG35-55 (5 ug/mL, 10 ug/mL, and 20 ug/mL). For all activation assays, splenocytes were pooled from three mice per group and triplicate wells were plated. Supernatants of cells were collected at the time of peak production for each cytokine (48 hrs: IL-2, IL-12p40, IL-6; 72 hrs: TNFα and IFNγ; 96 hrs: IL-17; 120 hrs: IL-10). Cytokines were measured in the supernatants using anti-mouse OPTEIA ELISA kits (BD Pharmingen for IFNγ, IL-10, IL-2, IL-6, and IL-12p40; R&D Systems for IL-17 and TNFα).

mice with EAE = assay: EAE in C57BL/6J mice (MOG35-55/CFA, pertussis toxin), neurological impairment scoring; format: in vivo, mouse; details: intraperitoneal 10-50 μg every other day starting at the peak of disease
Method: It was tested if the chaperone function of residues 73-92 of HspB5 were capable of reducing the symptoms of experimental allergic encephalomyelist (EAE), by inducing EAE in 9-week old female C57BL/6J by immunized subcutaneously with an emulsion containing 200 μg myelin oligodendrocyte glycoprotein 35-55 (MOG35-55; […] (SEQ ID NO:24)) in saline and an equal volume of complete Freund's adjuvant. Intraperitoneal injection of pertussis toxin at 0 and 48 h post-immunization results in paralysis beginning at day 12.

[2] = system: partially denatured proteins; details: in vitro, literature; cited from earlier work

Molecule	AREA UNDER THE CURVE (amount higher than HSPB5 normalized to PBS) (EAE mice)	clinical paralysis / EAE clinical scores (EAE mice)	further results
SRLFDQFFGEHLLES (listed as Homo sapiens) [HSPB5 peptide 21-35]	0.28		
QVSGPERTIPITREE (listed as Homo sapiens) [HSPB5 peptide 151-165]	0.29		
RRPFFPFHSPSRLFD (listed as Homo sapiens) [HSPB5 peptide 11-25]	−0.11		therapeutic efficacy of peptide in EAE (clinical scores) (EAE mice): therapeutic
PPSFLRAPSWFDTGL (listed as Homo sapiens) [HSPB5 peptide 51-65]	0.10		
HSP27 [HSPB1]		significantly ameliorated clinical paralysis; also recorded: therapeutic	production of pro-inflammatory cytokines by MOG stimulated splenocytes [1]: reduction; clinical paralysis / clinical scores of mice with EAE (mice with EAE): significant reduction of clinical paralysis; EAE clinical scores over the course of the whole experiment (area under the curve) (EAE mice): significantly improved
HGFISREFHRKYRIP (listed as Homo sapiens) [HSPB5 peptide 111-125]	0.33		
HSPB7: recombinant human small heat shock protein		ameliorated EAE	
EKDRFSVNLDVKHFS (listed as Homo sapiens) [HSPB5 peptide 71-85]	0.06		therapeutic efficacy of peptide in EAE (clinical scores) (EAE mice): marked therapeutic efficacy
LTITSSLSSDGVLTV (listed as Homo sapiens) [HSPB5 peptide 131-145]	0.08		therapeutic efficacy of peptide in EAE (clinical scores) (EAE mice): therapeutic
HLLESDLFPTSTSLS (listed as Homo sapiens) [HSPB5 peptide 31-45]	0.33		
ITREEKPAVTAAPKK (listed as Homo sapiens) [HSPB5 peptide 161-175]	0.08		therapeutic efficacy of peptide in EAE (clinical scores) (EAE mice): therapeutic
DRWRVSLDVNHFAPDELTVK [HSPB1 73-92]			production of pro-inflammatory cytokines by MOG stimulated splenocytes [1]: decrease peripheral immune activation; therapeutic efficacy of peptide in EAE (clinical scores) (EAE mice): therapeutic in EAE; therapeutic efficacy of peptide in EAE (clinical scores) (EAE mice; listed as HSPB1 73-93): as therapeutic as full length proteins
αA-crystallin [HSPB4]		significantly ameliorated clinical paralysis; also recorded: therapeutic	production of pro-inflammatory cytokines by MOG stimulated splenocytes [1]: reduction; clinical paralysis / clinical scores of mice with EAE (mice with EAE): significant reduction of clinical paralysis; EAE clinical scores over the course of the whole experiment (area under the curve) (EAE mice): significantly improved
STSLSPFYLRPPSFL (listed as Homo sapiens) [HSPB5 peptide 41-55]	0.28		
DKFVIFLDVKHFSPEDLTVK [HSPB4 73-92]			production of pro-inflammatory cytokines by MOG stimulated splenocytes [1]: decrease peripheral immune activation; therapeutic efficacy of peptide in EAE (clinical scores) (EAE mice): therapeutic in EAE; therapeutic efficacy of peptide in EAE (clinical scores) (EAE mice; listed as HSPB4 73-93): as therapeutic as full length proteins
B1		ameliorated EAE	
B2		ameliorated EAE	
B3		ameliorated EAE	
B4		ameliorated EAE	
B5		did improve clinical scores; also recorded: ameliorated EAE just as well as HSPB5	production of pro-inflammatory cytokines by MOG stimulated splenocytes [1]: reduction; also recorded: suppressed; molecular chaperone activity [2]: partial loss of molecular chaperone activity
B6		ameliorated EAE	
